Two compounds from patent US6492391B1, “Crystal modification d of 8-cyano-1-cyclopropyl-7-(1s, 6s- 2,8-diazabicyclo-[4.3.0]nonan-8-yl)-6-fluoro-1,4- dihydro-4-oxo-3-quinolinecarboxylic acid” (Bayer Aktiengesellschaft, priority 1999, dated 2002) can be followed below.

The subject of one series is pathogenic bacteria. In words: activity against pathogenic bacteria. The note with it: human or veterinary medicine. From the text:
Its broad area of use corresponds to that of CCDC.

Series [1] is described as follows: storage stability of the crystal modification. Type of series: physicochemical. The following applies: prolonged storage; solid state. From the text: For these reasons, it is highly suitable for preparing tablets or other solid formulations. Owing to its stability, it gives these formulations the desired long-lasting storage stability. Using the crystal modification D, it is therefore possible to prepare, in a defined and targeted manner, stable solid preparations of CCDC.

A short description of series [2]: hygroscopicity of the solid. Type of series: physicochemical. The note with it: powder obtained by the prior-art preparation process. From the text: The partially amorphous powder which is obtained by the preparation process outlined above is furthermore hygroscopic. However, amorphous solids, and in particular hygroscopic solids, are difficult to handle when being processed pharmaceutically since, for example, they have low bulk densities and unsatisfactory flow properties. Moreover, the handling of hygroscopic solids requires special work techniques and apparatuses to obtain reproducible results, for example with respect to the active compound content or the stability of the solid formulations produced.

Take `N#Cc1c(N2C[C@@H]3CCCN[C@@H]3C2)c(F)cc2c(=O)c(C(=O)O)cn(C3CC3)c12` [CCDC of the crystal modification D, 8-cyano-1-cyclopropyl-7-(1S,6S-2,8-diazabicyclo[4.3.0]nonan-8-yl)-6-fluoro-1,4-dihydro-4-oxo-3-quinolinecarboxylic acid]: in the series with pathogenic bacteria, the “activity against pathogenic bacteria” value is reported as “highly active”. Also, the “stability of the crystal modification on storage” value in series [1] is “surprisingly stable and does not change into another crystal modification or the amorphous form, even on prolonged storage”. In the case of `N#Cc1c(N2C[C@@H]3CCCN[C@@H]3C2)c(F)cc2c(=O)c(C(=O)O)cn(C3CC3)c12` [partially amorphous powder, 8-cyano-1-cyclopropyl-7-(1S,6S-2,8-diazabicyclo[4.3.0]nonan-8-yl)-6-fluoro-1,4-dihydro-4-oxo-3-quinolinecarboxylic acid], the hygroscopicity entry in series [2] is given as “hygroscopic”.
